Data taken from patent US6756382B2, “Amide substituted imidazoquinolines” (3M Innovative Properties Company, priority 1999, dated 2004).
Structures can show the parent of a compound that is named as a salt.

Legend:
[1] = tested on: tumor necrosis factor (α); test: Cytokine induction in human cells: tumor necrosis factor (α) secreted by PBMCs, ELISA; assay type: cell-based; settings: PBMC, incubated 18 to 24 hours, TNF determined by ELISA, read-out: Lowest Effective Concentration (μM) Tumor Necrosis Factor
From the text: (§1) An in vitro human blood cell system was used to assess cytokine induction by compounds of the invention. Activity is based on the measurement of interferon and tumor necrosis factor (α) (IFN and TNF, respectively) secreted into culture media as described by Testerman et. al. In “Cytokine Induction by the Immunomodulators Imiquimod and S-27609”, Journal of Leukocyte Biology, 58, 365-372 (September, 1995).
(§2) Whole blood is collected by venipuncture into EDTA vacutainer tubes from healthy human donors. Peripheral blood mononuclear cells (PBMCs) are separated from whole blood by density gradient centrifugation using Histopaque®-1077 (Sigma Chemicals, St. Louis, Mo.). The PBMCs are suspended at 3-4×10^6 cells/mL in RPMI 1640 medium containing 10% fetal bovine serum, 2 mM L-glutamine and 1% penicillin/streptomycin solution (RPMI complete). The PBMC suspension is added to 48 well flat bottom sterile tissue culture plates (Costar, Cambridge, Mass. or Becton Dickinson Labware, Lincoln Park, N.J.) containing an equal volume of RPMI complete media containing test compound.
(§3) The compounds are solubilized in dimethyl sulfoxide (DMSO). The DMSO concentration should not exceed a final concentration of 1% for addition to the culture wells.
(§4) The solution of test compound is added at 60 μM to the first well containing RPMI complete and serial (three fold or ten fold) dilutions are made. The PBMC suspension is then added to the wells in an equal volume, bringing the test compound concentrations to the desired range. The final concentration of PBMC suspension is 1.5-2×10^6 cells/mL. The plates are covered with sterile plastic lids, mixed gently and then incubated for 18 to 24 hours at 37° C. in a 5% carbon dioxide atmosphere.
(§5) Following incubation the plates are centrifuged for 5-10 minutes at 1000 rpm (˜200×g) at 4° C. The cell culture supernatant is removed with a sterile polypropylene pipet and transferred to sterile polypropylene tubes. Samples are maintained at −30 to −70° C. until analysis. The samples are analyzed for interferon (α) by either ELISA or bioassay and for tumor necrosis factor (α) by ELISA.
Tumor necrosis factor (α) (TNF)concentration is determined using ELISA kits available from Genzyme, Cambridge, Mass.; R&D Systems, Minneapolis, Minn.; or Pharmingen, San Diego, Calif.
(§6) The table below lists the lowest concentration found to induce interferon and the lowest concentration found to induce tumor necrosis factor for each compound. […] Unless otherwise indicated, the interferon biosynthesis was determined by ELISA.

interferon (α) = test: Cytokine induction in human cells: interferon secreted by PBMCs, ELISA; assay type: cell-based; settings: PBMC, incubated 18 to 24 hours, interferon determined by ELISA, read-out: Lowest Effective Concentration (μM) Interferon
From the text: as §1, §2, §3, §4, §5
Interferon (α) concentration is determined by ELISA using a Human Multi-Species kit from PBL Biomedical Laboratories, New Brunswick, N.J.
as §6

Compound	minimal effective concentration [1] [µM]	minimal effective concentration (interferon (α)) [µM]
COCCc1nc2c(N)nc3ccccc3c2n1CCCCNC(=O)C1CCCN1S(=O)(=O)c1ccc(C(C)(C)C)cc1 (stereo in doubt) [Example 185, N-{4-[4-amino-2-(2-methoxyethyl)-1H-imidazo[4,5-c]quinolin-1-yl]butyl}-1-[(4-tert-butylphenyl)sulfonyl]-L-prolinamide]	3.33	1.11
Cc1nc2c(N)nc3ccccc3c2n1CCCCNC(=O)c1ccccc1 [Example 4, N^1-[4-(4-Amino-2-methyl-1H-imidazo[4,5-c]quinolin-1-yl)butyl]benzamide]	0.37	0.04
CCc1nc2c(N)nc3ccccc3c2n1CCCCNC(=O)c1ccccc1 [Example 5, N^1-[4-(4-Amino-2-ethyl-1H-imidazo[4,5-c]quinolin-1-yl)butyl]benzamide]	0.37	0.04
CCCCc1nc2c(N)nc3ccccc3c2n1CCCCNC(=O)c1ccccc1 [Example 6, N^1-[4-(4-Amino-2-butyl-1H-imidazo[4,5-c]quinolin-1-yl)butyl]benzamide]	1.11	0.12
Nc1nc2ccccc2c2c1ncn2CCCCCNC(=O)c1ccccc1 [Example 10, N^1-[5-(4-Amino-1H-imidazo[4,5-c]quinolin-1-yl)pentyl]benzamide Hydrochloride]	> 30	3.33
Nc1nc2ccccc2c2c1ncn2CCCNC(=O)c1ccccc1 [Example 11, N^1-[3-(4-Amino-1H-imidazo[4,5-c]quinolin-1-yl)propyl]benzamide Hydrochloride]	> 30	1.11
CCOCc1nc2c(N)nc3ccccc3c2n1CCNC(=O)CCCCC1SCC2NC(=O)NC21 (stereo not drawn) [Example 29, N^1-[2-(4-Amino-2-(ethoxymethyl)-1H-imidazo[4,5-c]quinolin-1-yl)ethyl]-5-(2-oxoperhydrothieno[3,4-d]imidazol-4-yl)pentanamide Ditrifluoroacetate]	> 30	0.12
Nc1nc2ccccc2c2c1ncn2CCCCNC(=O)c1cccc2ccccc12 [Example 38, N^1-[4-(4-Amino-1H-imidazo[4,5-c]quinolin-1-yl)butyl]-1-naphthamide]	3.33	0.12
Nc1nc2ccccc2c2c1ncn2CCCCNC(=O)c1cnc2ccccc2c1 [Example 40, N^3-[4-(4-Amino-1H-imidazo[4,5-c]quinolin-1-yl)butyl]-3-quinolinecarboxamide]	30	0.37
Nc1nc2ccccc2c2c1ncn2CCCCNC(=O)c1ccco1 [Example 85]	10	1.11
Nc1nc2ccccc2c2c1ncn2CCCCNC(=O)c1cccs1 [Example 86]	10	1.11
Nc1nc2ccccc2c2c1ncn2CCCCNC(=O)c1ccc([N+](=O)[O-])cc1 [Example 87]	30	3.33
CC(=O)NCCCCn1cnc2c(N)nc3ccccc3c21 [Example 88]	> 30	10
Nc1nc2ccccc2c2c1ncn2CCCCNC(=O)c1cccc(Br)c1 [Example 89]	10	1.11
Nc1nc2ccccc2c2c1ncn2CCCCNC(=O)C12CC3CC(CC(C3)C1)C2 [Example 90]	10	3.33
Nc1nc2ccccc2c2c1ncn2CCCCNC(=O)C1(c2ccc(Cl)cc2)CCCC1 [Example 91]	> 30	3.33
C=CCCCCCCCCC(=O)NCCCCn1cnc2c(N)nc3ccccc3c21 [Example 92]	> 30	3.33
COc1cc(C(=O)NCCCCn2cnc3c(N)nc4ccccc4c32)cc(OC)c1OC [Example 93]	30	1.11
